Patent US10174035B2, “6-morpholinyl-2-pyrazolyl-9H-purine derivatives and their use as PI3K inhibitors” (Daiichi Sankyo Company, Limited, priority 2015, dated 2019)
Read-outs that look alike come from different tables or passages of the source.

Assays:
[1] = molecular target: PI3Kβ (Homo sapiens (Human), UniProt P42338); assay: In vitro enzyme assay (Kinase-Glo), selectivity, PI3Kβ; type: biochemical; details: enzyme 2.29 μg/mL; ATP 10 μM; PIP2 60 μM; 2 hours
Method: (§1) The Kinase-Glo luminescent kinase assay kit (from Promega) was used to measure kinase activity. In this assay, amount of ATP remaining in solution following a kinase reaction is measured. The effect of compounds on PI3Kδ inhibition was carried out by adding 2.29 μg/ml of recombinant PI3K δ enzyme (Proteros, Germany) to reaction mixture containing assay buffer (50 mM HEPES, pH 7.4, 50 mM NaCl, 0.05% CHAPS) supplemented with 10 mM MgCl2, 5 mM DTT, 60 μM Phosphatidyl inositol bisphosphate (PIP2) and 10 μM ATP in the absence or presence of different concentrations of the compounds in a final volume of 15 μl/well, in a 384 well plate. The reaction mixture was incubated for 2 hours at room temperature. At the end of incubation period the equal volume of Kinase-Glo plus (Promega, V3772), was added per well and the luminescence was measured after incubating for 10 minutes at room temperature in dark. Results were calculated by measuring the luminescence units of test samples to blanks containing no enzyme.
(§2) The compounds of the present invention were tested for their selectivity for PI3Kδ over PI3Kα, PI3Kβ and PI3Kγ following the above assay using specific recombinant enzymes (Proteros, Germany) for each kinase. Assay condition of kinase assay (PI3Kα, PI3Kβ, PI3Kγ and PI3Kδ) was as follows. Enzyme: 2.29 μg/mL; ATP: 10 μM; PIP2 substrate: 60 μM and Reaction Time: 2 hours.

[2] = tested on: IFN-γ release in mouse splenocytes; assay: Phytohaemagglutinin (PHA)-induced interferon (IFN)-gamma release in mouse splenocytes; parameters: species or system C57BL/6 mouse; details: Splenocyte, PHA (10 μg/ml) for 48 hours, IFN-γ by ELISA, read-out: Cell Based IC50
Method: Effect of compounds on mitogen-induced IFN-γ release in mouse splenocytes was used to evaluate their potency in cell-based assay system [Blood (2010) 115: 2203-2213; Current Protocols in Immunology (2004) 3.12.1-3.12.20].
Mouse splenocytes were obtained from the spleen of a C57BL/6 mouse and plated at a density of 0.25 million cells/well in a 96 well tissue culture plate. The effect of the compounds to inhibit IFN-γ release was evaluated by treating the splenocytes with various concentrations of the test compounds followed by stimulation with PHA (10 μg/ml) for 48 hours. The IFN-γ release in the cell culture supernatant was quantified by ELISA as per the manufacturer's protocol (BD Biosciences, #555138).

[3] = molecular target: PI3Kγ (Homo sapiens (Human), UniProt P48736); assay: In vitro enzyme assay (Kinase-Glo), selectivity, PI3Kγ; type: biochemical; details: enzyme 2.29 μg/mL; ATP 10 μM; PIP2 60 μM; 2 hours
PI3Kγ, sequence (P48736 whole entry, species assumed): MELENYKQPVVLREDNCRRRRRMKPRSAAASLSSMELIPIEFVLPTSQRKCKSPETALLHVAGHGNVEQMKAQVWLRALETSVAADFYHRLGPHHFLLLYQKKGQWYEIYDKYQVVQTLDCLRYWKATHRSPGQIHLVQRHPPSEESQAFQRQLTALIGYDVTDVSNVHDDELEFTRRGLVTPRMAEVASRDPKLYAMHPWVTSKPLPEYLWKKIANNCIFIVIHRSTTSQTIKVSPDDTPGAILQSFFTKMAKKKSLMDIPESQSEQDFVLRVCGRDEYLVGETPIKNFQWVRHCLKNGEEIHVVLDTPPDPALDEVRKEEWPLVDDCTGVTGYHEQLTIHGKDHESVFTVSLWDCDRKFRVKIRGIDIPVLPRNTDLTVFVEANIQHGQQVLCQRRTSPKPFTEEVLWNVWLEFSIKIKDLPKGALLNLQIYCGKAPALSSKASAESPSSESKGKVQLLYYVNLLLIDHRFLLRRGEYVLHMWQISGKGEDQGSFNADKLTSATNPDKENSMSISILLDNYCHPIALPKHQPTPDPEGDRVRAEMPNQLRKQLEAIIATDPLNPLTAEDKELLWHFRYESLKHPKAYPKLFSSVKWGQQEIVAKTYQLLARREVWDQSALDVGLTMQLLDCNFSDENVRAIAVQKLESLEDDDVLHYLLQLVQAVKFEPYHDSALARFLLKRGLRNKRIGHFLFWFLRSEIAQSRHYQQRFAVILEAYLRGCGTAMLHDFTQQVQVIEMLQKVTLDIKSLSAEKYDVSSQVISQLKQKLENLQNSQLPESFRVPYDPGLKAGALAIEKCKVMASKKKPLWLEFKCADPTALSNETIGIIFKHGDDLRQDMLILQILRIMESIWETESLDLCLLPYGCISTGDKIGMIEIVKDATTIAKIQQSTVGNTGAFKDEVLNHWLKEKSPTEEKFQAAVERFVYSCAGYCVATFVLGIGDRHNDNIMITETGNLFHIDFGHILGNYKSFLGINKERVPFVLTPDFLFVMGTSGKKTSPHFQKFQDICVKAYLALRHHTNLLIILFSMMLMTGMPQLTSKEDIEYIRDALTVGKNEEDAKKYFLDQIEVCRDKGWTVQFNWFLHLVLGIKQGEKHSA
Method: The Kinase-Glo luminescent kinase assay kit (from Promega) was used to measure kinase activity. In this assay, amount of ATP remaining in solution following a kinase reaction is measured. […] The reaction mixture was incubated for 2 hours at room temperature. At the end of incubation period the equal volume of Kinase-Glo plus (Promega, V3772), was added per well and the luminescence was measured after incubating for 10 minutes at room temperature in dark. Results were calculated by measuring the luminescence units of test samples to blanks containing no enzyme.
The compounds of the present invention were tested for their selectivity for PI3Kδ over PI3Kα, PI3Kβ and PI3Kγ following the above assay using specific recombinant enzymes (Proteros, Germany) for each kinase. Assay condition of kinase assay (PI3Kα, PI3Kβ, PI3Kγ and PI3Kδ) was as follows.

[4] = molecular target: PI3Kα (Homo sapiens (Human), UniProt P42336); assay: In vitro enzyme assay (Kinase-Glo), selectivity, PI3Kα; type: biochemical; details: enzyme 2.29 μg/mL; ATP 10 μM; PIP2 60 μM; 2 hours
PI3Kα, sequence (P42336 whole entry, species assumed): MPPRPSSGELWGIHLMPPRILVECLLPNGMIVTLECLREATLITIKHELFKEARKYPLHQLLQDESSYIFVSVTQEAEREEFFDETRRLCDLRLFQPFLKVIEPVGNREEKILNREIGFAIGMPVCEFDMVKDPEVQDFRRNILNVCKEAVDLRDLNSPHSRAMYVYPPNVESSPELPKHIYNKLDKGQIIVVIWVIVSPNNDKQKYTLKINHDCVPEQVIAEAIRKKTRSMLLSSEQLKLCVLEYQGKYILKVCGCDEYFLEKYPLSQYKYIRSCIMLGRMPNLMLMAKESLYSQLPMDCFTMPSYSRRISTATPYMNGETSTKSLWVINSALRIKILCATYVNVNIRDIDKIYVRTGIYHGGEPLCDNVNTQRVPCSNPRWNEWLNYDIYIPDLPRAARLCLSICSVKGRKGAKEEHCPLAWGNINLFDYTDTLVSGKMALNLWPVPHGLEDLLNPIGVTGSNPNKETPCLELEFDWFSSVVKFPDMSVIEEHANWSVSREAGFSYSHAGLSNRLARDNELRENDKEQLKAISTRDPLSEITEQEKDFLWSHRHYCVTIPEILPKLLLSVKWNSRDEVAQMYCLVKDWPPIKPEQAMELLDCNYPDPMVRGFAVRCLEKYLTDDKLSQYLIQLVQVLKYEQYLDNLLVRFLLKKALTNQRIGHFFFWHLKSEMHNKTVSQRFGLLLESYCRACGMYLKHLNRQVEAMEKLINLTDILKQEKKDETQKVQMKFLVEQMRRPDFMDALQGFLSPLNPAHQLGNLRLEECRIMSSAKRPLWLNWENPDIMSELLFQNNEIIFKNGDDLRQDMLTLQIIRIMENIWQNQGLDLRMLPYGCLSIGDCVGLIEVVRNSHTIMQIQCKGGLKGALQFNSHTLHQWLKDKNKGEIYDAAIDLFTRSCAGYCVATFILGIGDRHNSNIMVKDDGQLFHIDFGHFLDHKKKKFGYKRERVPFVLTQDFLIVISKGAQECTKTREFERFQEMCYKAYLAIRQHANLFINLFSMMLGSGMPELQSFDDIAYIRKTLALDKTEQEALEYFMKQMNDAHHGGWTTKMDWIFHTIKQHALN
PI3Kα, sequence (P27986 whole entry partner, species assumed): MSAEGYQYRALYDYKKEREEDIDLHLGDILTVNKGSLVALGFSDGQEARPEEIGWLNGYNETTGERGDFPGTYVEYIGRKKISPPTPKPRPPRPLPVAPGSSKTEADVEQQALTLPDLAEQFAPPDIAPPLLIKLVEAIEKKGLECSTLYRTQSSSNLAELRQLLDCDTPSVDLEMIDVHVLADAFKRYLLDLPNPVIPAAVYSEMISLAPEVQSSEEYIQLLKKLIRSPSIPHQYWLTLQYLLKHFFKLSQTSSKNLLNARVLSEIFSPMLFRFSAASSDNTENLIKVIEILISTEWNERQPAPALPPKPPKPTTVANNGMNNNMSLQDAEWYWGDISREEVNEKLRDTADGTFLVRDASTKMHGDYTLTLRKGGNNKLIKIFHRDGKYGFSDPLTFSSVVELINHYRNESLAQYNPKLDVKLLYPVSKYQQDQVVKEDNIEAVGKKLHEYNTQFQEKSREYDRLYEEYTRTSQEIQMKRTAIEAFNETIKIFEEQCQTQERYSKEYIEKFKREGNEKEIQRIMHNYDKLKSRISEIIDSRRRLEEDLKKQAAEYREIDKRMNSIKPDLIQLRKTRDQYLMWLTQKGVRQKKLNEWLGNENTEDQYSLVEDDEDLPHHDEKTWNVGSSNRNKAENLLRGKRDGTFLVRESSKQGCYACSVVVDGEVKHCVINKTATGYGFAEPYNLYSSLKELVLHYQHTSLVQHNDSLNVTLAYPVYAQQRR
Method: as §1, §2

[5] = molecular target: recombinant PI3K δ enzyme (Homo sapiens (Human), UniProt O00329); assay: In vitro enzyme assay (Kinase-Glo luminescent kinase assay), PI3Kδ; type: biochemical
recombinant PI3K δ enzyme, sequence (O00329 whole entry, species assumed, canonical isoform): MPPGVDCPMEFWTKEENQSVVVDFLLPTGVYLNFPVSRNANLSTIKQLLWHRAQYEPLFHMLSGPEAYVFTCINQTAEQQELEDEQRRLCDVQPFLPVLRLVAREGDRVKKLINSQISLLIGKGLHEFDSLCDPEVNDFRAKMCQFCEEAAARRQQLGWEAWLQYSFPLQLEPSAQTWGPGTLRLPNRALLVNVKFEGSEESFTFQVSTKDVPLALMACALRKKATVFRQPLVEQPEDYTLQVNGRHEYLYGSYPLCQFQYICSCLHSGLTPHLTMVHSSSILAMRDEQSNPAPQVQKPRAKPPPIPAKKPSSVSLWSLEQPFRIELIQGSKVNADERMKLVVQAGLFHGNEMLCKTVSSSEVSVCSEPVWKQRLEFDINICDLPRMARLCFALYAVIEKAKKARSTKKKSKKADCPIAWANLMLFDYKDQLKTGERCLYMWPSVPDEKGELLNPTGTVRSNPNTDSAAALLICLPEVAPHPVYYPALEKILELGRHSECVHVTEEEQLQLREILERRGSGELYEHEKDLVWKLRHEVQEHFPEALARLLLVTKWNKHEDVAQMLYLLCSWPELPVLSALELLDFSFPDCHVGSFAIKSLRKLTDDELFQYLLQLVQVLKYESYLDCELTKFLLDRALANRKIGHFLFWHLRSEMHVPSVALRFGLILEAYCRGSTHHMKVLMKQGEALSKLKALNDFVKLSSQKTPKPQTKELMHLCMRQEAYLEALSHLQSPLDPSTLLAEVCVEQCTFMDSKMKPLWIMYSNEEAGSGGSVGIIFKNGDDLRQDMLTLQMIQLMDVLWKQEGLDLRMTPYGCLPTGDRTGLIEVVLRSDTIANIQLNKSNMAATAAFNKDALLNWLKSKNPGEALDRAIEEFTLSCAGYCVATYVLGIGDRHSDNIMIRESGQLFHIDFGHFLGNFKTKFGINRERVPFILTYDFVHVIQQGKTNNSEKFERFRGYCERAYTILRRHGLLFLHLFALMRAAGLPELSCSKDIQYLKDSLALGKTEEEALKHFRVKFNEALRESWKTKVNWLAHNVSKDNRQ
recombinant PI3K δ enzyme, sequence (P27986 whole entry partner, species assumed, canonical isoform): as the sequence (P27986 whole entry partner, species assumed) above
In short: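 Each recombinant human PI3K isoform at 2.29 μg/mL with 60 μM PIP2 and 10 μM ATP in HEPES pH 7.4, NaCl, CHAPS, MgCl2, DTT, 2 hours at room temperature. Remaining ATP read by Kinase-Glo luminescence relative to no-enzyme blanks.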

[6] = enzyme 2.29 μg/mL, ATP 10 μM, PIP2 60 μM, 2 hours

PI3Kβ, sequence (P42338 whole entry, species assumed): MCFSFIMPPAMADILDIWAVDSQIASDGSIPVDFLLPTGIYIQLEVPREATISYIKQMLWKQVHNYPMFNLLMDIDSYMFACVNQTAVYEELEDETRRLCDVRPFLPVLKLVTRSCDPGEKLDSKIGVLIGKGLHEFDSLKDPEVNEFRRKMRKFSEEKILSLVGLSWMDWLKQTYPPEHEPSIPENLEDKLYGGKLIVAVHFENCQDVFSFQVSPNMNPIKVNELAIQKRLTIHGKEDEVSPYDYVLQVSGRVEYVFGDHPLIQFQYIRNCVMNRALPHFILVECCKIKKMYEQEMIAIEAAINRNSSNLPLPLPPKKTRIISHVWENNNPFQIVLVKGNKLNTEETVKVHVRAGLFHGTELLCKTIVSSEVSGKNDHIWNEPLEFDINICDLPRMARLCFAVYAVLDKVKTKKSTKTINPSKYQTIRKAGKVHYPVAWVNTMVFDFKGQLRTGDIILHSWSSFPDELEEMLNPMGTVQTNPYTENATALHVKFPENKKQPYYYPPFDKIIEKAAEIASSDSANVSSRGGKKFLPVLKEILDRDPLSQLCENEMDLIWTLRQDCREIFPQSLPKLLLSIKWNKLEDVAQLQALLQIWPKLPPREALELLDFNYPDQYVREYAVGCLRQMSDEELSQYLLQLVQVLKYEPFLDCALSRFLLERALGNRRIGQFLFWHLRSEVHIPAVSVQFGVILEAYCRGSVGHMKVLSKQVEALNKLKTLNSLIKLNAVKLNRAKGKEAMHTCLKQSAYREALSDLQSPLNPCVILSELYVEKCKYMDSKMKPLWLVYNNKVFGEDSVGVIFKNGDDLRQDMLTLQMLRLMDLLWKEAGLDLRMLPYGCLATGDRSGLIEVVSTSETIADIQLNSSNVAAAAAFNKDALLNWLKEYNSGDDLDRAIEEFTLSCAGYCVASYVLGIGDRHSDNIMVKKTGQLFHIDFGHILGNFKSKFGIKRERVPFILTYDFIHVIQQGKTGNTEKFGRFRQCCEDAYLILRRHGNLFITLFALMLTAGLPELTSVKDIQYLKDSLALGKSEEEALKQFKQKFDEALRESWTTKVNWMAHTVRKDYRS
PI3Kβ, sequence (P27986 whole entry partner, species assumed): as the sequence (P27986 whole entry partner, species assumed) above

Row | Structure (SMILES) | IC50 [1] [nM] | IC50 [2] [nM] | IC50 [3] [nM] | IC50 [4] [nM] | IC50 [5] [nM] | IC50 [5, 6] [nM]
1 | Cc1nn(C)cc1-c1nc(N2CCOCC2)c2nc(C(=O)N3CCN(C(C)(C)C(N)=O)CC3)[nH]c2n1 [compound 8, 2-(4-{[2-(1,3-Dimethyl-1H-pyrazol-4-yl)-6-(morpholin-4-yl)-9H-purin-8-yl]carbonyl}piperazin-1-yl)-2-methylpropanamide] | > 1000 | 422 | 6540 | 6480 | 10 | 10
2 | Cn1cc(-c2nc(N3CCOCC3)c3nc(C(=O)N4CCN(C(C)(C)C(N)=O)CC4)[nH]c3n2)cn1 [compound 10, 2-Methyl-2-(4-{[2-(1-methyl-1H-pyrazol-4-yl)-6-(morpholin-4-yl)-9H-purin-8-yl]carbonyl}piperazin-1-yl)propanamide] | – | 270 | – | – | – | –
3 | Cn1cc(-c2nc(N3CCOCC3)c3nc(C(=O)N4CCC(C(C)(C)O)CC4)[nH]c3n2)cn1 [compound 14, [4-(2-Hydroxypropan-2-yl)piperidin-1-yl][2-(1-methyl-1H-pyrazol-4-yl)-6-(morpholin-4-yl)-9H-purin-8-yl]methanone] | > 10000 | 810 | 584 | > 1000 | 16 | 16
4 | O=C(c1nc2c(N3CCOCC3)nc(-c3c[nH]nc3C(F)(F)F)nc2[nH]1)N1CCC(N2CCOCC2)CC1 [compound 19, [4-(Morpholin-4-yl)piperidin-1-yl]{6-(morpholin-4-yl)-2-[3-(trifluoromethyl)-1H-pyrazol-4-yl]-9H-purin-8-yl}methanone] | > 10000 | 192 | 5660 | 4050 | 13 | 13
5 | Cc1nn(C)cc1-c1nc(N2CCOCC2)c2nc(C(=O)N3CCC(N4CCOCC4)CC3)[nH]c2n1 [compound 41, [2-(1,3-Dimethyl-1H-pyrazol-4-yl)-6-(morpholin-4-yl)-9H-purin-8-yl][4-(morpholin-4-yl)piperidin-1-yl]methanone] | > 10000 | 225 | 2100 | 8820 | 14 | 14
6 | CN1CCCC1CCNC(=O)c1nc2c(N3CCOCC3)nc(-c3cnn(C)c3)nc2[nH]1 (stereo not drawn) [compound 64, 2-(1-Methyl-1H-pyrazol-4-yl)-N-{2-[1-methylpyrrolidin-2-yl]ethyl}-6-(morpholin-4-yl)-9H-purine-8-carboxamide] | > 10000 | 112 | 6130 | 984 | 17 | 17
7 | C[C@@H]1CN(C2CCN(C(=O)c3nc4c(N5CCOCC5)nc(-c5cn[nH]c5)nc4[nH]3)CC2)C[C@H](C)O1 [compound 65, {4-[cis-2,6-Dimethylmorpholin-4-yl]piperidin-1-yl}[6-(morpholin-4-yl)-2-(1H-pyrazol-4-yl)-9H-purin-8-yl]methanone] | > 10000 | 79 | 9770 | 986 | – | –
8 | Cn1cc(-c2nc(N3CCOCC3)c3nc(C(=O)NCCCN4CCOCC4)n(C)c3n2)cn1 [compound 67, 9-Methyl-2-(1-methyl-1H-pyrazol-4-yl)-6-(morpholin-4-yl)-N-[3-(morpholin-4-yl)propyl]-9H-purine-8-carboxamide] | > 10000 | 27 | > 1000 | > 1000 | 11 | 11
9 | Cn1cc(-c2nc(N3CCOCC3)c3nc(C(=O)NCCCN4CCCC4=O)[nH]c3n2)cn1 [compound 68, 2-(1-Methyl-1H-pyrazol-4-yl)-6-(morpholin-4-yl)-N-[3-(2-oxopyrrolidin-1-yl)propyl]-9H-purine-8-carboxamide] | > 10000 | 296 | > 1000 | > 1000 | 17 | 17
10 | O=C(c1nc2c(N3CCOCC3)nc(-c3cn[nH]c3)nc2[nH]1)N1CCC2(CC1)COC2 [compound 72, [6-(Morpholin-4-yl)-2-(1H-pyrazol-4-yl)-9H-purin-8-yl](2-oxa-7-azaspiro[3.5]non-7-yl)methanone] | > 10000 | 333 | > 1000 | > 1000 | 18 | 18
11 | C[C@@H]1CN(CCCNC(=O)c2nc3c(N4CCOCC4)nc(-c4cnn(C)c4)nc3[nH]2)C[C@H](C)O1 [compound 75, N-{3-[cis-2,6-dimethylmorpholin-4-yl]propyl}-2-(1-methyl-1H-pyrazol-4-yl)-6-(morpholin-4-yl)-9H-purine-8-carboxamide] | > 10000 | 84 | > 1000 | > 1000 | 18 | –
12 | Cn1cc(-c2nc3[nH]c(C(=O)N4CCC5(CC4)COC5)nc3c(N3CCOCC3)c2F)cn1 [compound 79, [6-Fluoro-5-(1-methyl-1H-pyrazol-4-yl)-7-(morpholin-4-yl)-3H-imidazo[4,5-b]pyridin-2-yl](2-oxa-7-azaspiro[3.5]non-7-yl)methanone] | > 10000 | 13 | > 1000 | > 1000 | 20 | 20
13 | Cn1cc(-c2nc3[nH]c(C(=O)N4CCN(C(C)(C)C(N)=O)CC4)nc3c(N3CCOCC3)c2F)cn1 [compound 82, 2-(4-{[6-Fluoro-5-(1-methyl-1H-pyrazol-4-yl)-7-(morpholin-4-yl)-3H-imidazo[4,5-b]pyridin-2-yl]carbonyl}piperazin-1-yl)-2-methylpropanamide] | > 10000 | 346 | > 1000 | > 1000 | 11 | 11
14 | Cc1nn(C)cc1-c1cc(N2CCOCC2)c2nc(C(=O)N3CCC(N4C[C@@H](C)O[C@@H](C)C4)CC3)[nH]c2n1 [compound 113, {4-[cis-2,6-Dimethylmorpholin-4-yl]piperidin-1-yl}[5-(1,3-dimethyl-1H-pyrazol-4-yl)-7-(morpholin-4-yl)-3H-imidazo[4,5-b]pyridin-2-yl]methanone] | 1150 | 7 | > 1000 | > 1000 | – | –
15 | Cn1cc(-c2cc(N3CCOCC3)c3nc(C(=O)NCCCN4CCCC4=O)[nH]c3n2)cn1 [compound 116, 5-(1-Methyl-1H-pyrazol-4-yl)-7-(morpholin-4-yl)-N-[3-(2-oxopyrrolidin-1-yl)propyl]-3H-imidazo[4,5-b]pyridine-2-carboxamide] | – | 72 | – | – | – | –
16 | O=C(c1nc2c(N3CCOCC3)cc(-c3cn[nH]c3)nc2[nH]1)N1CCC(N2CCOCC2)CC1 [compound 133, [4-(Morpholin-4-yl)piperidin-1-yl][7-(morpholin-4-yl)-5-(1H-pyrazol-4-yl)-3H-imidazo[4,5-b]pyridin-2-yl]methanone] | – | – | – | – | 19 | –
17 | O=C(c1nc2c(N3CCOCC3)cc(-c3c[nH]nc3C(F)(F)F)nc2[nH]1)N1CCC(N2CCOCC2)CC1 [compound 134, [4-(Morpholin-4-yl)piperidin-1-yl]{7-(morpholin-4-yl)-5-[3-(trifluoromethyl)-1H-pyrazol-4-yl]-3H-imidazo[4,5-b]pyridin-2-yl}methanone] | – | – | – | – | 3 | –
18 | Cn1cc(-c2cc(N3CCOCC3)c3nc(C(=O)N4CCN(C5CCOCC5)CC4)[nH]c3n2)cn1 [compound 135, [5-(1-Methyl-1H-pyrazol-4-yl)-7-(morpholin-4-yl)-3H-imidazo[4,5-b]pyridin-2-yl][4-(tetrahydro-2H-pyran-4-yl)piperazin-1-yl]methanone] | – | – | – | – | 19 | –
